# Source: patent US20080182822A1, “Liquid Pharmaceutical Compositions Comprising a Bisphosphonate Compound” (Besins Healthcare SA, priority 2006, published 2008)
# Several values for one entry are separate records, joined by “and”; a condition that tells them apart may be missing. Equal entries are not always repeated. Where two headings read alike, the source gives them in different places.
# Conditions: rat; for Feces Excretion, Amount Excreted (% of Dose), 8 hours: collection 0-8 hours; for Feces Excretion, Amount Excreted (% of Dose), 120 hours / Urinary Excretion, Amount Excreted (% of Dose), 120 hours: collection 96-120 hours; for Feces Excretion, Amount Excreted (% of Dose), 144 hours / Urinary Excretion, Amount Excreted (% of Dose), 144 hours: collection 120-144 hours; for Feces Excretion, Amount Excreted (% of Dose), 168 hours / Urinary Excretion, Amount Excreted (% of Dose), 168 hours: collection 144-168 hours
# [1] = intravenous 0.2 mg/kg (Group 1), Mean
# [2] = intravenous 0.2 mg/kg (Group 1), individual animals, 0.2 mg/kg
# [3] = intravenous 0.2 mg/kg (Group 1), collection 24-48 hours, individual animals, 0.2 mg/kg
# [4] = intravenous 0.2 mg/kg (Group 1), collection 48-72 hours, Mean
# [5] = intravenous 0.2 mg/kg (Group 1), collection 48-72 hours, individual animals, 0.2 mg/kg
# [6] = intravenous 0.2 mg/kg (Group 1), collection 72-96 hours, Mean
# [7] = intravenous 0.2 mg/kg (Group 1), collection 72-96 hours, individual animals, 0.2 mg/kg
# [8] = intravenous 0.2 mg/kg (Group 1), necropsy Day 4, Mean
# [9] = intravenous 0.2 mg/kg (Group 1), necropsy Day 4, individual animals, 0.2 mg/kg
# [10] = intravenous 0.2 mg/kg (Group 1), necropsy Day 8, Mean
# [11] = intravenous 0.2 mg/kg (Group 1), necropsy Day 8, individual animals, 0.2 mg/kg
compound,measurement,setting,value
NCCCC(O)(P(=O)(O)O)P(=O)(O)O [14C-alendronate],"Recovery from Treated Skin, % of Dose","dermal (Group 2), necropsy Day 8, individual animals",0.25% and 0.22% (2×) and 0.33% and 0.39%
same,"Urinary Excretion, Total Excretion (% of Dose), 0-72 hours",in vivo,1.16% of Dose
same,"Feces Excretion, Amount Excreted (% of Dose), 72 hours","in vivo, iv, 0.2 mg/kg",1.17% of Dose
same,"Feces Excretion, Amount Excreted (% of Dose), 96 hours","in vivo, iv, 0.2 mg/kg",1.17% of Dose
same,"Urinary Excretion, Amount Excreted (% of Dose), 24 hours","in vivo, iv, 0.2 mg/kg",1.19% of Dose and 1.28% of Dose and 1.37% of Dose and 1.27% of Dose and 1.06% of Dose
same,"Urinary Excretion, Total Excretion (% of Dose), 0-72 hours","in vivo, iv, 0.2 mg/kg",11.3% of Dose
same,"Feces Excretion, Total Excretion (% of Dose), 0-72 hours",[1],4.1% of Dose
same,"Urinary Excretion, Total Excretion (% of Dose), 0-72 hours",[1],7.3% of Dose
same,"Feces Excretion, Amount Excreted (% of Dose), 8 hours",[1],0.12% of Dose
same,"Feces Excretion, Amount Excreted (% of Dose), 8 hours",[2],0.01% of Dose and 0.02% of Dose and 0.00% of Dose (3×) and 0.67% of Dose
same,"Urinary Excretion, Amount Excreted (% of Dose), 24 hours","intravenous 0.2 mg/kg (Group 1), collection 8-24 hours, Mean",1.2% of Dose
same,"Urinary Excretion, Amount Excreted (% of Dose), 24 hours","intravenous 0.2 mg/kg (Group 1), collection 8-24 hours, individual animals",0.94% of Dose
same,"Urinary Excretion, Amount Excreted (% of Dose), 48 hours","intravenous 0.2 mg/kg (Group 1), collection 24-48 hours, Mean",0.8% of Dose
same,"Feces Excretion, Amount Excreted (% of Dose), 48 hours",[3],0.47% of Dose and 0.92% of Dose
same,"Urinary Excretion, Amount Excreted (% of Dose), 48 hours",[3],0.78% of Dose and 0.94% of Dose and 0.75% of Dose and 0.95% of Dose and 0.34% of Dose and 0.85% of Dose
same,"Feces Excretion, Amount Excreted (% of Dose), 72 hours",[4],0.57% of Dose
same,"Urinary Excretion, Amount Excreted (% of Dose), 72 hours",[4],0.4% of Dose
same,"Feces Excretion, Amount Excreted (% of Dose), 72 hours",[5],0.15% of Dose and 0.24% of Dose and 0.44% of Dose and 0.87% of Dose
same,"Urinary Excretion, Amount Excreted (% of Dose), 72 hours",[5],0.56% of Dose and 0.34% of Dose and 0.51% of Dose and 0.61% of Dose and 0.20% of Dose and 0.26% of Dose
same,"Feces Excretion, Amount Excreted (% of Dose), 96 hours",[6],0.55% of Dose
same,"Urinary Excretion, Amount Excreted (% of Dose), 96 hours",[6],0.5% of Dose
same,"Feces Excretion, Amount Excreted (% of Dose), 96 hours",[7],0.32% of Dose and 0.14% of Dose
same,"Urinary Excretion, Amount Excreted (% of Dose), 96 hours",[7],0.74% of Dose and 0.15% of Dose and 0.57% of Dose
same,"Feces Excretion, Amount Excreted (% of Dose), 120 hours",[1],0.41% of Dose
same,"Urinary Excretion, Amount Excreted (% of Dose), 120 hours",[1],0.3% of Dose
same,"Feces Excretion, Amount Excreted (% of Dose), 120 hours",[2],0.56% of Dose and 0.12% of Dose and 0.54% of Dose
same,"Urinary Excretion, Amount Excreted (% of Dose), 120 hours",[2],0.43% of Dose and 0.11% of Dose and 0.27% of Dose
same,"Feces Excretion, Amount Excreted (% of Dose), 144 hours",[1],0.34% of Dose
same,"Urinary Excretion, Amount Excreted (% of Dose), 144 hours",[1],0.3% of Dose
same,"Feces Excretion, Amount Excreted (% of Dose), 144 hours",[2],0.36% of Dose and 0.08% of Dose and 0.59% of Dose
same,"Urinary Excretion, Amount Excreted (% of Dose), 144 hours",[2],0.59% of Dose and 0.06% of Dose and 0.31% of Dose
same,"Feces Excretion, Amount Excreted (% of Dose), 168 hours",[1],0.04% of Dose
same,"Urinary Excretion, Amount Excreted (% of Dose), 168 hours",[1],0.2% of Dose
same,"Feces Excretion, Amount Excreted (% of Dose), 168 hours",[2],0.06% of Dose and 0.02% of Dose and 0.05% of Dose
same,"Urinary Excretion, Amount Excreted (% of Dose), 168 hours",[2],0.33% of Dose and 0.18% of Dose and 0.16% of Dose
same,"Feces Excretion, Total Excretion (% of Dose), 0-72 hours",[2],3.1% of Dose and 8.6% of Dose and 2.4% of Dose and 3.2% of Dose and 2.3% of Dose and 5.0% of Dose
same,"Feces Excretion, Total Excretion (% of Dose), 0-168 hours",[2],5.6% of Dose and 3.1% of Dose and 8.2% of Dose
same,"Urinary Excretion, Total Excretion (% of Dose), 0-72 hours",[2],8.0% of Dose and 7.6% of Dose and 7.8% of Dose and 3.9% of Dose and 5.2% of Dose
same,"Concentration in bone, Femur",[8],0.500 μg 14C-alendronate/g bone
same,"Concentration in bone, Tibia",[8],0.492 μg 14C-alendronate/g bone
same,"Concentration in bone, Femur",[9],0.525 μg 14C-alendronate/g bone and 0.408 μg 14C-alendronate/g bone and 0.568 μg 14C-alendronate/g bone
same,"Concentration in bone, Tibia",[9],0.551 μg 14C-alendronate/g bone and 0.547 μg 14C-alendronate/g bone and 0.379 μg 14C-alendronate/g bone
same,"Concentration in bone, Femur",[10],0.679 μg 14C-alendronate/g bone
same,"Concentration in bone, Tibia",[10],0.586 μg 14C-alendronate/g bone
same,"Concentration in bone, Femur",[11],0.707 μg 14C-alendronate/g bone and 0.692 μg 14C-alendronate/g bone and 0.639 μg 14C-alendronate/g bone
same,"Concentration in bone, Tibia",[11],0.704 μg 14C-alendronate/g bone and 0.680 μg 14C-alendronate/g bone and 0.374 μg 14C-alendronate/g bone
